Results: ChEMBL document CHEMBL5321285 (J Med Chem, 2023)
Values after ≈ are worked out from the molar mass of the structure shown. Active and inactive are the calls of the source. No cut-off for these calls is given here.

Key:
[1] = biological target: T1, Sigma intracellular receptor 2 (Rattus norvegicus, UniProt Q5U3Y7); experiment: Displacement of [3H]di-o-tolylguanidine from rat liver membrane sigma 2 receptor assessed as inhibition constant in presence of haloperidol; type: cell membranes
T1 sequence (Q5U3Y7 whole entry): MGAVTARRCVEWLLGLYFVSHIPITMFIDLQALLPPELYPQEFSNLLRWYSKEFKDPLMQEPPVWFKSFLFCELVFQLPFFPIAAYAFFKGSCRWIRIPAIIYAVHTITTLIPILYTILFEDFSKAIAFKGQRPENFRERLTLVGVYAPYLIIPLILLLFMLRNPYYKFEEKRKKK

[2] = biological target: Sigma non-opioid intracellular receptor 1 (Cavia porcellus, UniProt Q60492)
Sigma non-opioid intracellular receptor 1 (Cavia porcellus, UniProt Q60492), sequence (Q60492 whole entry): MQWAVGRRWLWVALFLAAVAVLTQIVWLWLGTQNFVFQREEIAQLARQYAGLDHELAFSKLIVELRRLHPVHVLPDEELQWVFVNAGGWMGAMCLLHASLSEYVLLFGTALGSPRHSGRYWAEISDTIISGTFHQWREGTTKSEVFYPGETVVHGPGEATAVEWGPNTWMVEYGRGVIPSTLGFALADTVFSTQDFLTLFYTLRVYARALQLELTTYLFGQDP
Description: Displacement of [3H](+)-pentazocine from sigma 1 receptor in guinea pig brain membranes assessed as inhibition constant incubated for 120 mins in presence of haloperidol

[3] = biological target: Sigma non-opioid intracellular receptor 1 (Homo sapiens, UniProt Q99720); experiment: Displacement of [3H]-(+)-pentazocine from human sigma1 receptor transfected in HEK293 cell membranes assessed as inhibition constant incubated for 120 mins in presence of haloperidol by microbeta scintillation counter analysis; set-up: species or system Cell membrane
Sigma non-opioid intracellular receptor 1 (Homo sapiens, UniProt Q99720), sequence (Q99720 whole entry): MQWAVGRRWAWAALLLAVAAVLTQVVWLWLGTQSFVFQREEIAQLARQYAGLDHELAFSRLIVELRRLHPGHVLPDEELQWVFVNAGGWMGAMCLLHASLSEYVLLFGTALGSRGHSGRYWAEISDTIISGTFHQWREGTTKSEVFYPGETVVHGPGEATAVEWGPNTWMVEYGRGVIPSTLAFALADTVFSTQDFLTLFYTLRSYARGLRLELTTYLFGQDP

Homo sapiens = organism: Homo sapiens; experiment: Selectivity ratio of Ki for displacement of [3H]-(+)-pentazocine from human sigma1 receptor transfected in HEK293 cell membranes assessed as inhibition constant to Ki for displacement of [3H]-1,3-di-O-tolylguanidine from human sigma 2 receptor/TMEM97 transfected in sigma 1 receptor knockout HEK293 cell membranes assessed as inhibition constant
[4] = biological target: Sigma intracellular receptor 2 (Homo sapiens, UniProt Q5BJF2); experiment: Displacement of [3H]-1,3-di-O-tolylguanidine from human sigma 2 receptor/TMEM97 transfected in sigma 1 receptor knockout HEK293 cell membranes assessed as inhibition constant measured after 120 mins by microbeta scintillation counting analysis; set-up: species or system Cell membrane
Sigma intracellular receptor 2 (Homo sapiens, UniProt Q5BJF2), sequence (Q5BJF2 whole entry): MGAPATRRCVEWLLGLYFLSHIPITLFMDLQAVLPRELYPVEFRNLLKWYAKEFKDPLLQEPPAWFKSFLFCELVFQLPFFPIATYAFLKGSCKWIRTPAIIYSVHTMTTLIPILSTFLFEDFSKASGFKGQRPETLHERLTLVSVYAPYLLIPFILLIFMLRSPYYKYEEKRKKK

[5] = Metabolic stability in human liver microsome assessed as parent compound remaining at 1 uM measured after 1 hr in presence of NADPH regenerating system by UPLC-MS/MS analysis; type: ADME; conditions: liver microsomes, read-out: Stability
[6] = Metabolic stability in rat liver microsome assessed as parent compound remaining at 1 uM measured after 1 hr in presence of NADPH regenerating system by UPLC-MS/MS analysis; type: ADME; conditions: liver microsomes, read-out: Stability
[7] = Metabolic stability in mouse liver microsome assessed as parent compound remaining at 1 uM measured after 1 hr in presence of NADPH regenerating system by UPLC-MS/MS analysis; type: ADME; conditions: liver microsomes, read-out: Stability
[8] = biological target: Voltage-gated inwardly rectifying potassium channel KCNH2 (Homo sapiens, UniProt Q12809); experiment: Inhibition of hERG expressed in CHO cells at holding potential of -80 mV measured for 15 seconds by whole cell patch clamp assay; type: toxicity, cell-based
Voltage-gated inwardly rectifying potassium channel KCNH2, sequence (Q12809 whole entry): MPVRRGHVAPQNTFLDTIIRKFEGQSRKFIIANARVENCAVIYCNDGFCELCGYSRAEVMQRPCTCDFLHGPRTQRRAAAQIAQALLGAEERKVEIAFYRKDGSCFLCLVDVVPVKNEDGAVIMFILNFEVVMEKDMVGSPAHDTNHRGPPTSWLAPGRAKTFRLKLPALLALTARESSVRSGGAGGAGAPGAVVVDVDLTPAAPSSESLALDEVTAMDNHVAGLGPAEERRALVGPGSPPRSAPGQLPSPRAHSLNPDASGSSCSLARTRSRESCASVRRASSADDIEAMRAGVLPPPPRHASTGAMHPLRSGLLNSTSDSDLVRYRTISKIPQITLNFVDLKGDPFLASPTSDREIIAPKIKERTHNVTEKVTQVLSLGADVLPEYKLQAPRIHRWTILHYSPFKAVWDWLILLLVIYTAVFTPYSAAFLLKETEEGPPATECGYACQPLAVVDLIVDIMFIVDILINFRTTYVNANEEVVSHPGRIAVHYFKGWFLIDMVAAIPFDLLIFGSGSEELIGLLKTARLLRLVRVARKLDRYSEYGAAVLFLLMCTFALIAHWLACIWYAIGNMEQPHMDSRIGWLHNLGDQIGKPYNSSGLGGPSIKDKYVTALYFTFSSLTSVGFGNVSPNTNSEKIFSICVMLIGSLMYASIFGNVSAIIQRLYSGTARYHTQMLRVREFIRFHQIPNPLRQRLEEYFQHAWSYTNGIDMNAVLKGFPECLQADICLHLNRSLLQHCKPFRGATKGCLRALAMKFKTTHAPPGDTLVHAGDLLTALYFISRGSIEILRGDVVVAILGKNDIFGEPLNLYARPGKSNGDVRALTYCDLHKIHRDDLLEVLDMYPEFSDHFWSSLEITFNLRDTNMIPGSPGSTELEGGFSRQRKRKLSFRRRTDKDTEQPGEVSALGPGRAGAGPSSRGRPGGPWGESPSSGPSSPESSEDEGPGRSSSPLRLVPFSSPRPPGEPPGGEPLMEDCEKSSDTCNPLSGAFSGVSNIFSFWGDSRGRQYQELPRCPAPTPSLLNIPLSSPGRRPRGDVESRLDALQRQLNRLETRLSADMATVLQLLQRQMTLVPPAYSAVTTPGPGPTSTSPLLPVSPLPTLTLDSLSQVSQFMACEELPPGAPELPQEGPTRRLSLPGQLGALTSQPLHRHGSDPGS

[9] = Lipophilicity, logP of compound; type: physicochemical; conditions: octanol/water
[10] = Lipophilicity, logD of the compound; type: physicochemical; conditions: octanol/water
[11] = Solubility of the compound at pH 7.4; type: physicochemical; conditions: buffer
[12] = Dissociation constant, pKa of the compound; type: physicochemical
Cytochrome P450 1A2 = biological target: T2, Cytochrome P450 1A2 (Homo sapiens, UniProt P05177); experiment: Inhibition of CYP1A2 in human liver microsomes using phenacetin as substrate incubated for 20 mins by UPLC-MS/MS analysis; type: ADME, Microsome
T2 sequence (P05177 whole entry): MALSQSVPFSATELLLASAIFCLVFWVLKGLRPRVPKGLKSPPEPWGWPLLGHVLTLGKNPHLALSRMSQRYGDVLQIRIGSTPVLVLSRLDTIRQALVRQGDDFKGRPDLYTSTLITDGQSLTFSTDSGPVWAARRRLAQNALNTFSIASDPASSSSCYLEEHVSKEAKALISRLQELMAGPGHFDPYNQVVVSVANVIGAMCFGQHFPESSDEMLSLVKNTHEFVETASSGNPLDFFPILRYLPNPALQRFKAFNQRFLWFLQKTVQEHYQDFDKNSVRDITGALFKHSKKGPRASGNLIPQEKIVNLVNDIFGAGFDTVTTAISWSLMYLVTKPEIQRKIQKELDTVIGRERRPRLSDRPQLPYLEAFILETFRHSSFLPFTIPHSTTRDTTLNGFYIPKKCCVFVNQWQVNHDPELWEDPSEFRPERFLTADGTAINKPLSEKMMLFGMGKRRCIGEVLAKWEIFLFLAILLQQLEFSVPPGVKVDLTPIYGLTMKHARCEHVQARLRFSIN

Cytochrome P450 2C9 = Cytochrome P450 2C9 (Homo sapiens, UniProt P11712); experiment: Inhibition of CYP2C9 in human liver microsomes using tolbutamide as substrate incubated for 20 mins by UPLC-MS/MS analysis; type: ADME, Microsome
Cytochrome P450 2C9, sequence (P11712 whole entry): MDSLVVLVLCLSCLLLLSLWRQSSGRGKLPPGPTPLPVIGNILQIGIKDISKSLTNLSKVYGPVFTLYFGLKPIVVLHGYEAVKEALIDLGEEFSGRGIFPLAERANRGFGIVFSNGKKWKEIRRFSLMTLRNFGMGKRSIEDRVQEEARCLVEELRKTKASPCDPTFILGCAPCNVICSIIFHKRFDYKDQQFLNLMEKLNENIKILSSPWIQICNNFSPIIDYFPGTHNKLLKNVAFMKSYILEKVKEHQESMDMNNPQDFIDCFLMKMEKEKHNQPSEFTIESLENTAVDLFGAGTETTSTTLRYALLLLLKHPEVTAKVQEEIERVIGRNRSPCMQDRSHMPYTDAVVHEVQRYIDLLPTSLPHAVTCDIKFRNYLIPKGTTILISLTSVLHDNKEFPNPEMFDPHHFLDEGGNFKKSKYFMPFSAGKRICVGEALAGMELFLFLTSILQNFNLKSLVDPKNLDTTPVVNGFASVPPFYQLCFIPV

Cytochrome P450 2C19 = Cytochrome P450 2C19 (Homo sapiens, UniProt P33261); experiment: Inhibition of CYP2C19 in human liver microsomes using S mephenytoin as substrate incubated for 20 mins by UPLC-MS/MS analysis; type: ADME, Microsome
Cytochrome P450 2C19, sequence (P33261 whole entry): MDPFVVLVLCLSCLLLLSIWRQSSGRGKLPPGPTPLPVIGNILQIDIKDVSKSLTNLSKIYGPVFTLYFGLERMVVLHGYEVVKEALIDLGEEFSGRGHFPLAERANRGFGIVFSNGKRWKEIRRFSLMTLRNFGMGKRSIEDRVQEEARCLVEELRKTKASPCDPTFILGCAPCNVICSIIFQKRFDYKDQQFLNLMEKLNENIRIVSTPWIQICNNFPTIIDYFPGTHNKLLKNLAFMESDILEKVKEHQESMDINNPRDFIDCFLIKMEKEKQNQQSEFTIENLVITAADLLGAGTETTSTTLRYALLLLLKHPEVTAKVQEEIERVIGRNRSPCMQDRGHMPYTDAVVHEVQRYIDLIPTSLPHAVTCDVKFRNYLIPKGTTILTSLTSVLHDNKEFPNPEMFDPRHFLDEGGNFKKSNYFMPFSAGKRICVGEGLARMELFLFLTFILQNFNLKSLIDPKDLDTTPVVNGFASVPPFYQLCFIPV

Cytochrome P450 2D6 = Cytochrome P450 2D6 (Homo sapiens, UniProt P10635); experiment: Inhibition of CYP2D6 in human liver microsomes using bufuralol as substrate incubated for 20 mins by UPLC-MS/MS analysis; type: ADME, Microsome
Cytochrome P450 2D6, sequence (P10635 whole entry): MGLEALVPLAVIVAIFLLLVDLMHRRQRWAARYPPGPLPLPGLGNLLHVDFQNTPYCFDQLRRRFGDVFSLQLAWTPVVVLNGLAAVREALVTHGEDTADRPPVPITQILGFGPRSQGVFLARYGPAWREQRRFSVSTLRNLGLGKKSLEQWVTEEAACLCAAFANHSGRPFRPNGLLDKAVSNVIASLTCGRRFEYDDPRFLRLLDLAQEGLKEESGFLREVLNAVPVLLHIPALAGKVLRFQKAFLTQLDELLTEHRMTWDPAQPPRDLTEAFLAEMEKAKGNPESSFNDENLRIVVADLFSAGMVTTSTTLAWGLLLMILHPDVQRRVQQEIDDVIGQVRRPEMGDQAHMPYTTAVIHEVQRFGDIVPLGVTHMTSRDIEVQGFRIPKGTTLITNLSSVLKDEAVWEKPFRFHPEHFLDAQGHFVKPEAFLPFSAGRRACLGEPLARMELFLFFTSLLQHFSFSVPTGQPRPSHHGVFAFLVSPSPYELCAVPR

Cytochrome P450 3A4 = Cytochrome P450 3A4 (Homo sapiens, UniProt P08684); experiment: Inhibition of CYP3A4 in human liver microsomes using testosterone as substrate incubated for 20 mins by UPLC-MS/MS analysis; type: ADME, Microsome
Cytochrome P450 3A4, sequence (P08684 whole entry): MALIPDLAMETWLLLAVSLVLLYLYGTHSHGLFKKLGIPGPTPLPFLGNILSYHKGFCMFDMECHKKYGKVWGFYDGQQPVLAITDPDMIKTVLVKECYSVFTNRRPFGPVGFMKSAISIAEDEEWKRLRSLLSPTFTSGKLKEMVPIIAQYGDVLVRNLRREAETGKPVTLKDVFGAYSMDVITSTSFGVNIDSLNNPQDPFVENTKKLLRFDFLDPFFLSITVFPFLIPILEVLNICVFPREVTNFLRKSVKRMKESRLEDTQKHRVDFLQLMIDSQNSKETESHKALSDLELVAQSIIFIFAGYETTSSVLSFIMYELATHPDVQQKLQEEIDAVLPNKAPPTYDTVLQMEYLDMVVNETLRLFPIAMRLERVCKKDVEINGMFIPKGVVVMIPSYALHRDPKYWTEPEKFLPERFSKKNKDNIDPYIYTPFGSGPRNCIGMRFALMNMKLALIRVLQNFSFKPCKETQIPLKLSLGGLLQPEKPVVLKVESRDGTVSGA

[13] = Metabolic stability in human liver microsome assessed as intrinsic clearance incubated upto 60 mins in presence of NADPH regenerating system by UPLC-MS/MS analysis; type: ADME; conditions: liver microsomes, read-out: CLH
[14] = Metabolic stability in rat liver microsome assessed as intrinsic clearance incubated upto 60 mins in presence of NADPH regenerating system by UPLC-MS/MS analysis; type: ADME; conditions: liver microsomes, read-out: CLH
[15] = Metabolic stability in mouse liver microsome assessed as intrinsic clearance incubated upto 60 mins in presence of NADPH regenerating system by UPLC-MS/MS analysis; type: ADME; conditions: liver microsomes, read-out: CLH
[16] = Apparent permeability across apical to basolateral side in human Caco-2 cells incubated for 2 hrs by UPLC-MS/MS analysis; type: ADME, cell-based
[17] = Efflux ratio of apparent permeability across […] in human Caco-2 cells; type: ADME, cell-based
[18] = Cmax in Wistar rat at 10 mg/kg, po by UPLC-MS/MS analysis; type: ADME, organism-based; set-up: dose 10 mg/kg, route po; conditions: in vivo
[19] = Cmax in Wistar rat at 1 mg/kg, iv by UPLC-MS/MS analysis; type: ADME, organism-based; set-up: dose 1 mg/kg, route iv; conditions: in vivo
[20] = Tmax in Wistar rat at 10 mg/kg, po by UPLC-MS/MS analysis; type: ADME, organism-based; conditions: in vivo
[21] = Tmax in Wistar rat at 1 mg/kg, iv by UPLC-MS/MS analysis; type: ADME, organism-based; conditions: in vivo
[22] = AUC in Wistar rat at 10 mg/kg, po by UPLC-MS/MS analysis; type: ADME, organism-based; set-up: dose 10 mg/kg, route po; conditions: in vivo
[23] = AUC in Wistar rat at 1 mg/kg, iv by UPLC-MS/MS analysis; type: ADME, organism-based; set-up: dose 1 mg/kg, route iv; conditions: in vivo
[24] = Half life in Wistar rat at 1 mg/kg, iv by UPLC-MS/MS analysis; type: ADME, organism-based; conditions: in vivo
[25] = Clearance in Wistar rat at 1 mg/kg, iv by UPLC-MS/MS analysis; type: ADME, organism-based; conditions: in vivo
[26] = Volume of distribution at steady state in Wistar rat at 1 mg/kg, iv by UPLC-MS/MS analysis; type: ADME, organism-based; conditions: in vivo, read-out: Vdss
[27] = Oral bioavailability in Wistar rat at 10 mg/kg by UPLC-MS/MS analysis; type: ADME, organism-based; conditions: in vivo
[28] = Ratio AUC in Wistar rat brain to plasma at 10 mg/kg, po measured for 10 mins by UPLC-MS/MS analysis; type: ADME, organism-based; conditions: brain and plasma, read-out: Ratio AUC
[29] = Drug concentration in Wistar rat plasma at 10 mg/kg, po measured for 10 mins by UPLC-MS/MS analysis; type: ADME, organism-based
Neuron = experiment: Neuroprotective activity against MPP+ induced rat neurons at 10 uM pretreated with compond for 1 hr followed by MPP+ addition and measured after 48 hrs; type: functional, cell-based; conditions: time 49.0 hrs
Rattus norvegicus = experiment: Anti-alzheimer activity against amyloid beta peptide-induced cognitive impairment in Wistar rat model at 10 mg/kg, po measured for 10 days; type: functional, organism-based; conditions: time 10.0 day
[30] = biological target: Sigma non-opioid intracellular receptor 1 (Rattus norvegicus, UniProt Q9R0C9); experiment: Displacement of [3H](+)-pentazocine from rat liver membranes sigma 1 receptor assessed as inhibition constant incubated for 120 mins; type: cell membranes, Membrane
Sigma non-opioid intracellular receptor 1 (Rattus norvegicus, UniProt Q9R0C9), sequence (Q9R0C9 whole entry): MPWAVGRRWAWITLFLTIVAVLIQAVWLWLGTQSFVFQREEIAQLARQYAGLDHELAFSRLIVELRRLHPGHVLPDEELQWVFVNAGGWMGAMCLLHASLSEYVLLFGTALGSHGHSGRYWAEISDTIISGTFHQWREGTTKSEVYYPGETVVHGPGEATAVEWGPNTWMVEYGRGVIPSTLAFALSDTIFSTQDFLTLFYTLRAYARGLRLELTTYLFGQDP

[31] = biological target: T1, Sigma intracellular receptor 2; experiment: Displacement of [3H]di-o-tolylguanidine from rat liver membrane sigma 2 assessed as inhibition constant incubated for 120 mins; type: cell membranes

Structure (SMILES): CN1CC[C@]2(c3cccc(O)c3)CC(=O)/C(=C/c3ccc(Cl)c(Cl)c3)[C@H]1C2
- Ki [1]: 0.0134 µM
- Ki [2]: 7.44 µM

Structure (SMILES): CCc1ncc(-c2cc(C)no2)c(C2CCN(CC(=O)N3CCOCC3)CC2)n1
- Ki [3]: 1.78 µM
- Ratio Ki (Homo sapiens): 137
- Ki [4]: 0.013 µM
- remaining at 1 h, 1 µM [5]: 93%
- remaining at 1 h, 1 µM [6]: 95%
- remaining at 1 h, 1 µM [7]: 93%
- IC50 [8]: > 10 µM
- logP [9]: 1.7
- logD [10]: 1.4
- solubility [11]: 7280 µg/mL (≈ 18.2 mM)
- pKa [12]: 7.4
- IC50 (Cytochrome P450 1A2): > 900 µM
- IC50 (Cytochrome P450 2C9): 600 µM
- IC50 (Cytochrome P450 2C19): > 900 µM
- IC50 (Cytochrome P450 2D6): 133 µM
- IC50 (Cytochrome P450 3A4): > 900 µM
- microsomal CLint [13]: 1.6 µL/min/mg
- microsomal CLint [14]: 1.5 µL/min/mg
- microsomal CLint [15]: 2.8 µL/min/mg
- Papp A→B at 2 h [16]: 17.7 ×10⁻⁶ cm/s
- Ratio [17]: 1.2
- Cmax [18]: 900 ng/mL
- Cmax [19]: 2020 ng/mL
- Tmax [20]: 48 min
- Tmax [21]: 18 min
- AUC [22]: 3000 ng·h/mL
- AUC [23]: 593 ng·h/mL
- half-life [24]: 60 min
- clearance [25]: 28.3 mL/min/kg
- Vd [26]: 0.8 L/kg
- bioavailability [27]: 51%
- Kp at 10 min [28]: 0.41
- concentration at 10 min [29]: 250 ng/g
- Activity (Neuron): Active
- Activity (Rattus norvegicus): Active

Structure (SMILES): CC(=O)c1ccc2c(c1)oc(=O)n2CCCCN1CCN(c2ccc(F)cc2N)CC1
- Ki [30]: 0.087 µM
- Ki [31]: 0.0035 µM
